According to the NIST ThermoML archive (doi:10.1021/acs.jced.8b00132):
Where “and” joins values, the source holds several entries; their conditions need not be identical. Equal entries are not always repeated. Numbers after ± are expanded uncertainties.

O=C(C(F)(F)C(F)(F)F)C(F)(C(F)(F)F)C(F)(F)F [dodecafluoro-2-methylpentan-3-one]
Settings | thermal conductivity
402.37 K, 306 kPa, Gas, hot wire | 0.0201 ± 0.00095 W/m/K
402.38 K, 27 kPa, Gas, hot wire | 0.01858 ± 0.00088 W/m/K
402.38 K, 306 kPa, Gas, hot wire | 0.02016 ± 0.00095 W/m/K
402.44 K, 159 kPa, Gas, hot wire | 0.01917 ± 0.0009 W/m/K and 0.01915 ± 0.0009 W/m/K
402.45 K, 445 kPa, Gas, hot wire | 0.02064 ± 0.00097 W/m/K
402.47 K, 444 kPa, Gas, hot wire | 0.02039 ± 0.00096 W/m/K
402.49 K, 306 kPa, Gas, hot wire | 0.02022 ± 0.00095 W/m/K and 0.02027 ± 0.00095 W/m/K
402.5 K, 27 kPa, Gas, hot wire | 0.01866 ± 0.00088 W/m/K and 0.01864 ± 0.00088 W/m/K
402.57 K, 160 kPa, Gas, hot wire | 0.01916 ± 0.0009 W/m/K
402.57 K, 161 kPa, Gas, hot wire | 0.0192 ± 0.0009 W/m/K
402.57 K, 444 kPa, Gas, hot wire | 0.02075 ± 0.00098 W/m/K
402.59 K, 443 kPa, Gas, hot wire | 0.02053 ± 0.00097 W/m/K
402.62 K, 305 kPa, Gas, hot wire | 0.02031 ± 0.00096 W/m/K and 0.02029 ± 0.00096 W/m/K
402.63 K, 27 kPa, Gas, hot wire | 0.01867 ± 0.00088 W/m/K
402.64 K, 27 kPa, Gas, hot wire | 0.01862 ± 0.00088 W/m/K
402.68 K, 835 kPa, Gas, transient hot wire | 0.02013 ± 0.0012 W/m/K
402.69 K, 441 kPa, Gas, hot wire | 0.02089 ± 0.00099 W/m/K
402.69 K, 442 kPa, Gas, hot wire | 0.02089 ± 0.00099 W/m/K
402.69 K, 835 kPa, Gas, transient hot wire | 0.02007 ± 0.0012 W/m/K
402.71 K, 162 kPa, Gas, hot wire | 0.01917 ± 0.0009 W/m/K
402.71 K, 163 kPa, Gas, hot wire | 0.01926 ± 0.00091 W/m/K
402.74 K, 305 kPa, Gas, hot wire | 0.02049 ± 0.00096 W/m/K
402.74 K, 747 kPa, Gas, transient hot wire | 0.01986 ± 0.0012 W/m/K
402.74 K, 748 kPa, Gas, transient hot wire | 0.01986 ± 0.0012 W/m/K
402.75 K, 305 kPa, Gas, hot wire | 0.02035 ± 0.00096 W/m/K
402.78 K, 27 kPa, Gas, hot wire | 0.01867 ± 0.00088 W/m/K and 0.01858 ± 0.00088 W/m/K
402.81 K, 608 kPa, Gas, transient hot wire | 0.01959 ± 0.0012 W/m/K
402.81 K, 609 kPa, Gas, transient hot wire | 0.01955 ± 0.0012 W/m/K
402.85 K, 164 kPa, Gas, hot wire | 0.01925 ± 0.00091 W/m/K and 0.01927 ± 0.00091 W/m/K
402.87 K, 447 kPa, Gas, transient hot wire | 0.01955 ± 0.0012 W/m/K
402.87 K, 448 kPa, Gas, transient hot wire | 0.01962 ± 0.0012 W/m/K
402.87 K, 836 kPa, Gas, transient hot wire | 0.02025 ± 0.0013 W/m/K
402.88 K, 836 kPa, Gas, transient hot wire | 0.0203 ± 0.0013 W/m/K
402.91 K, 746 kPa, Gas, transient hot wire | 0.01994 ± 0.0012 W/m/K
402.92 K, 307 kPa, Gas, transient hot wire | 0.01967 ± 0.0012 W/m/K
402.92 K, 746 kPa, Gas, transient hot wire | 0.01998 ± 0.0012 W/m/K
402.93 K, 27 kPa, Gas, hot wire | 0.01857 ± 0.00088 W/m/K and 0.01866 ± 0.00088 W/m/K
403 K, 607 kPa, Gas, transient hot wire | 0.01962 ± 0.0012 W/m/K and 0.01975 ± 0.0012 W/m/K
403.05 K, 836 kPa, Gas, transient hot wire | 0.02051 ± 0.0013 W/m/K
403.06 K, 836 kPa, Gas, transient hot wire | 0.02049 ± 0.0013 W/m/K
403.07 K, 447 kPa, Gas, transient hot wire | 0.01962 ± 0.0012 W/m/K
403.08 K, 446 kPa, Gas, transient hot wire | 0.01959 ± 0.0012 W/m/K
403.1 K, 744 kPa, Gas, transient hot wire | 0.02004 ± 0.0012 W/m/K
403.1 K, 745 kPa, Gas, transient hot wire | 0.02014 ± 0.0012 W/m/K
403.12 K, 306 kPa, Gas, transient hot wire | 0.01974 ± 0.0012 W/m/K
403.12 K, 307 kPa, Gas, transient hot wire | 0.01974 ± 0.0012 W/m/K
403.2 K, 605 kPa, Gas, transient hot wire | 0.01971 ± 0.0012 W/m/K
403.21 K, 606 kPa, Gas, transient hot wire | 0.01981 ± 0.0012 W/m/K
403.25 K, 836 kPa, Gas, transient hot wire | 0.02071 ± 0.0013 W/m/K
403.25 K, 837 kPa, Gas, transient hot wire | 0.02072 ± 0.0013 W/m/K
403.28 K, 445 kPa, Gas, transient hot wire | 0.01961 ± 0.0012 W/m/K
403.3 K, 445 kPa, Gas, transient hot wire | 0.01958 ± 0.0012 W/m/K
403.33 K, 744 kPa, Gas, transient hot wire | 0.02022 ± 0.0013 W/m/K
403.34 K, 306 kPa, Gas, transient hot wire | 0.01976 ± 0.0012 W/m/K
403.34 K, 743 kPa, Gas, transient hot wire | 0.02024 ± 0.0013 W/m/K
403.35 K, 306 kPa, Gas, transient hot wire | 0.01972 ± 0.0012 W/m/K
403.41 K, 605 kPa, Gas, transient hot wire | 0.01984 ± 0.0012 W/m/K
403.42 K, 604 kPa, Gas, transient hot wire | 0.01984 ± 0.0012 W/m/K
403.51 K, 444 kPa, Gas, transient hot wire | 0.01967 ± 0.0012 W/m/K
403.53 K, 742 kPa, Gas, transient hot wire | 0.02037 ± 0.0013 W/m/K and 0.02041 ± 0.0013 W/m/K
403.54 K, 443 kPa, Gas, transient hot wire | 0.01965 ± 0.0012 W/m/K
403.57 K, 305 kPa, Gas, transient hot wire | 0.01974 ± 0.0012 W/m/K and 0.01978 ± 0.0012 W/m/K
403.63 K, 603 kPa, Gas, transient hot wire | 0.01991 ± 0.0012 W/m/K
403.64 K, 602 kPa, Gas, transient hot wire | 0.01991 ± 0.0012 W/m/K
403.75 K, 442 kPa, Gas, transient hot wire | 0.01972 ± 0.0012 W/m/K
403.76 K, 442 kPa, Gas, transient hot wire | 0.01971 ± 0.0012 W/m/K
403.81 K, 305 kPa, Gas, transient hot wire | 0.01987 ± 0.0012 W/m/K and 0.01988 ± 0.0012 W/m/K
416.35 K, 1171 kPa, Liquid, transient hot wire | 0.03902 ± 0.00082 W/m/K and 0.03885 ± 0.00082 W/m/K
416.51 K, 1171 kPa, Liquid, transient hot wire | 0.03892 ± 0.00082 W/m/K and 0.03904 ± 0.00082 W/m/K
416.67 K, 1170 kPa, Liquid, transient hot wire | 0.03901 ± 0.00082 W/m/K
416.68 K, 1170 kPa, Liquid, transient hot wire | 0.0389 ± 0.00082 W/m/K
416.69 K, 596 kPa, Gas, hot wire | 0.0223 ± 0.001 W/m/K
416.7 K, 595 kPa, Gas, hot wire | 0.02228 ± 0.0014 W/m/K
416.78 K, 2205 kPa, Liquid, transient hot wire | 0.04062 ± 0.00085 W/m/K
416.79 K, 2206 kPa, Liquid, transient hot wire | 0.04049 ± 0.00085 W/m/K
416.8 K, 24840 kPa, Liquid, transient hot wire | 0.05568 ± 0.0011 W/m/K
416.81 K, 24844 kPa, Liquid, transient hot wire | 0.05562 ± 0.0011 W/m/K
416.81 K, 50957 kPa, Liquid, transient hot wire | 0.06585 ± 0.0014 W/m/K
416.82 K, 50950 kPa, Liquid, transient hot wire | 0.06577 ± 0.0014 W/m/K
416.86 K, 1170 kPa, Liquid, transient hot wire | 0.03904 ± 0.00082 W/m/K
416.87 K, 1131 kPa, Gas, transient hot wire | 0.02258 ± 0.00075 W/m/K
416.87 K, 1170 kPa, Liquid, transient hot wire | 0.03905 ± 0.00082 W/m/K
416.88 K, 16295 kPa, Liquid, transient hot wire | 0.0514 ± 0.0011 W/m/K
416.89 K, 590 kPa, Gas, hot wire | 0.02234 ± 0.0014 W/m/K
